Data reported in ChEMBL document CHEMBL1201862, “PubChem BioAssay data set” (2004).
Active and inactive are the calls of the source.

Tests used:
Cytochrome P450 2C19 = Cytochrome P450 2C19 (Homo sapiens, UniProt P33261); assay: Cytochrome panel assay with activity outcomes. Panel member name: p450-cyp2c19 Compounds with AC50 equal or less than 10 uM are considered active; type: functional; details: read-out: AC50
Cytochrome P450 1A2 = target: T1, Cytochrome P450 1A2 (Homo sapiens, UniProt P05177);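 further: PubChem cytochrome P450 panel assay, CYP1A2 panel member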
T1 sequence (P05177 whole entry): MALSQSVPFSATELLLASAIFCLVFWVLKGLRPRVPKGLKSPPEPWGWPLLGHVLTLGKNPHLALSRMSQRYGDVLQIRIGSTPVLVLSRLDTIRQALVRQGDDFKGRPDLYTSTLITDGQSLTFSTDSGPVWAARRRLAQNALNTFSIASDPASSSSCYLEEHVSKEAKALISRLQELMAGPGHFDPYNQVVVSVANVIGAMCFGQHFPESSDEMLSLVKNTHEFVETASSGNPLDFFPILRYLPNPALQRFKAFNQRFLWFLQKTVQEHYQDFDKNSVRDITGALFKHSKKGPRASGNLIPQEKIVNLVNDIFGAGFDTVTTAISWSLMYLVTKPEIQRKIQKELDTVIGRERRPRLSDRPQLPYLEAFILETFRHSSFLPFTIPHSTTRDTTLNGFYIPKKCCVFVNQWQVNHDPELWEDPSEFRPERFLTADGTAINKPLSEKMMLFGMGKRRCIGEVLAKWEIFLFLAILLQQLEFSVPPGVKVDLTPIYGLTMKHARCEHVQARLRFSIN

Cytochrome P450 2C9 = Cytochrome P450 2C9 (Homo sapiens, UniProt P11712)
Sequence of Cytochrome P450 2C9 (P11712 whole entry): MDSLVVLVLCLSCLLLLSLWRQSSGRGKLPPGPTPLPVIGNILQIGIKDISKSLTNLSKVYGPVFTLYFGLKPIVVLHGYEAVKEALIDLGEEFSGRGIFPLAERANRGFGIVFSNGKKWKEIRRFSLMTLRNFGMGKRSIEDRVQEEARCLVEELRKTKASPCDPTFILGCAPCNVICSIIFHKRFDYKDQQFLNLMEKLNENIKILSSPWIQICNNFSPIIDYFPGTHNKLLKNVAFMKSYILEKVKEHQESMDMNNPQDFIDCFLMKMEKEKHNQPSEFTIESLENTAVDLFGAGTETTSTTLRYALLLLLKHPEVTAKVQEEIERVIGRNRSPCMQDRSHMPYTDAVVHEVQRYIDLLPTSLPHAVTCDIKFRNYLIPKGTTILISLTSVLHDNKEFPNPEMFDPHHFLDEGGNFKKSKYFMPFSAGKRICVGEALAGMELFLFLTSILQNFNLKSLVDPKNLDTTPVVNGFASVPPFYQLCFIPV

Cytochrome P450 2D6 = Cytochrome P450 2D6 (Homo sapiens, UniProt P10635);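 further: CYP2D6 member of a cytochrome P450 panel assay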
Sequence of Cytochrome P450 2D6 (P10635 whole entry): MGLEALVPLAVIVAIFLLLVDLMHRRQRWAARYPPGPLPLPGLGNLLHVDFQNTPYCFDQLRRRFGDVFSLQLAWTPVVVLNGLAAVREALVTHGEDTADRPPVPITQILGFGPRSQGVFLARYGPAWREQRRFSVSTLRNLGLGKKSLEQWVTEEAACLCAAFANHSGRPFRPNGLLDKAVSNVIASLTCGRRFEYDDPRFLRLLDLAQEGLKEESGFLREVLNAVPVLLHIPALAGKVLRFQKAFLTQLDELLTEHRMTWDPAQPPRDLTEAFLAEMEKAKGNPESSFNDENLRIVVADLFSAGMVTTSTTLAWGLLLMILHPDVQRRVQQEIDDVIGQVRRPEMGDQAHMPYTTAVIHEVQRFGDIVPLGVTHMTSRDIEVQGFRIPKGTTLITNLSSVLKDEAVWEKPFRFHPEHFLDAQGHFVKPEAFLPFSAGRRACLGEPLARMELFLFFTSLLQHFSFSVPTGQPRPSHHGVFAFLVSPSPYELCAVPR

Cytochrome P450 3A4 = Cytochrome P450 3A4 (Homo sapiens, UniProt P08684);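 further: CYP3A4 tested as one member of a cytochrome P450 panel screen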
Sequence of Cytochrome P450 3A4 (P08684 whole entry): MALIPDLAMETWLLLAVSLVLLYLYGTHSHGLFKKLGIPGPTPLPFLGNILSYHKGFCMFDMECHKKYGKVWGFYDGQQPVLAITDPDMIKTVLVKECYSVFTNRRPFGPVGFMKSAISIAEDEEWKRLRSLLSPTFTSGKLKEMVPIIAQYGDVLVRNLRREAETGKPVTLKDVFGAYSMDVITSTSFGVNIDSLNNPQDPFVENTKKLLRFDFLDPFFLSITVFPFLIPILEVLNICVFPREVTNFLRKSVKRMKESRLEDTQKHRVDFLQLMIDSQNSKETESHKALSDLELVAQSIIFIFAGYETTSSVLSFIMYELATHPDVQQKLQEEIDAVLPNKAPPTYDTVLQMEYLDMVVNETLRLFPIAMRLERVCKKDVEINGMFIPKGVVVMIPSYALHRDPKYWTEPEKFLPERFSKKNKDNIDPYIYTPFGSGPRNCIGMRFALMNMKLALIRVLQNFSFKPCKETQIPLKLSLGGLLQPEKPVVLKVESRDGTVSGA

[1] = target: T2, Rac GTPase-activating protein 1 (Homo sapiens, UniProt Q9H0H5); assay: blockers of MgcRacGAP-driven Rac1 GTP hydrolysis – biochemical, ADP Hunter fluorescence, primary and confirmatory, confirmation (AID 624330); type: functional
T2 sequence (Q9H0H5 whole entry): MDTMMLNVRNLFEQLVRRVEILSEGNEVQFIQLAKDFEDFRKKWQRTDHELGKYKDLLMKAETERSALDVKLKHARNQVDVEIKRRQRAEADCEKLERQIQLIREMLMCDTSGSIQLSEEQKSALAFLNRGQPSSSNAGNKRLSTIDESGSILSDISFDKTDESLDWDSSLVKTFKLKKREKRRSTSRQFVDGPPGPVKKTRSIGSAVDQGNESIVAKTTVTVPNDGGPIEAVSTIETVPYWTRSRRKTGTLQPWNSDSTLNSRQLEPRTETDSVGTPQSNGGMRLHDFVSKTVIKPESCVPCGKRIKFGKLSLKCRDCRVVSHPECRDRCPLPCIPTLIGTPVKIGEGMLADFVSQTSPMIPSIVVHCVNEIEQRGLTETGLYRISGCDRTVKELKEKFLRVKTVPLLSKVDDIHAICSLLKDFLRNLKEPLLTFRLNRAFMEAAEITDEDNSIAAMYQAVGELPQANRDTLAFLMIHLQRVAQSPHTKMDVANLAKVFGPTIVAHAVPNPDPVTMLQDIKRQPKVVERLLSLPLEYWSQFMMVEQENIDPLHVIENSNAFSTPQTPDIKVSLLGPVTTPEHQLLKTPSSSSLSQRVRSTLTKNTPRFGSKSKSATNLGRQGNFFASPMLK

[2] = viability of uninfected HEp-2 cells – cell-based, HTS, cytotoxicity control for RSV inhibitor project, dose response (AID 2410); type: functional; details: human respiratory syncytial virus
[3] = Trypanosoma cruzi growth suppression in host cells – NIH3T3 host cells, beta-gal luminescence, confirmation (AID 2044); type: functional, cell-based;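 further: intracellular parasites grown in NIH/3T3 mouse fibroblasts as host cells; luminescent beta-galactosidase reporter signal from transgenic T. cruzi replicating inside host cells; inhibitors lower the luminescence signal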
[4] = NIH3T3 cell viability loss – ATP luminescence, mouse fibroblasts, counter-screen, dose response (AID 2010); type: functional, cell-based;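 further: cells exposed to compound for about 90 hours before reading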
[5] = target: T3, Corticotropin-releasing factor receptor 2/Corticotropin-releasing factor-binding protein (Homo sapiens, UniProt P24387+Q13324); assay: activators of CRF receptor 2 with binding protein – uHTS hits, confirmation (AID 602473); type: functional; details: read-out: EC50_Mean
T3 sequence (Q13324 whole entry): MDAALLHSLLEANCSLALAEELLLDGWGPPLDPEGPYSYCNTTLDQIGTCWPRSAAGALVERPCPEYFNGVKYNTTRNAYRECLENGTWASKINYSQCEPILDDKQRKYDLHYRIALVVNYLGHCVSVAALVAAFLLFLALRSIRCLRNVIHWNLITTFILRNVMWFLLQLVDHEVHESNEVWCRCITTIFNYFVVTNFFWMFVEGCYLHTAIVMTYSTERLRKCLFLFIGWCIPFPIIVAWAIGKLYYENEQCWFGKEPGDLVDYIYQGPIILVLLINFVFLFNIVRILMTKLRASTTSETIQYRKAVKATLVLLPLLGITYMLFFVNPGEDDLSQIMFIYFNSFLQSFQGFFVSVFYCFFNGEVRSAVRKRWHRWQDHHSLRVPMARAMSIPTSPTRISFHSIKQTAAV
T3 sequence (P24387 whole entry): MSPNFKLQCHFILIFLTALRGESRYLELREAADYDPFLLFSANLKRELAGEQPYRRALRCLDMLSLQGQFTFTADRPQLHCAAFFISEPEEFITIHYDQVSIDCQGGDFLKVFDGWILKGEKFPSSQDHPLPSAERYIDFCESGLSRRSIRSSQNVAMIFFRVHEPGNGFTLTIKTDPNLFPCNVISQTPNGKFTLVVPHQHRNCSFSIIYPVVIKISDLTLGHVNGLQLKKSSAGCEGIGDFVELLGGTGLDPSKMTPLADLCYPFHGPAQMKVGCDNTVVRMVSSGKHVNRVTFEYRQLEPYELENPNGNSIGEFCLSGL

Sequence of Cytochrome P450 2C19 (P33261 whole entry): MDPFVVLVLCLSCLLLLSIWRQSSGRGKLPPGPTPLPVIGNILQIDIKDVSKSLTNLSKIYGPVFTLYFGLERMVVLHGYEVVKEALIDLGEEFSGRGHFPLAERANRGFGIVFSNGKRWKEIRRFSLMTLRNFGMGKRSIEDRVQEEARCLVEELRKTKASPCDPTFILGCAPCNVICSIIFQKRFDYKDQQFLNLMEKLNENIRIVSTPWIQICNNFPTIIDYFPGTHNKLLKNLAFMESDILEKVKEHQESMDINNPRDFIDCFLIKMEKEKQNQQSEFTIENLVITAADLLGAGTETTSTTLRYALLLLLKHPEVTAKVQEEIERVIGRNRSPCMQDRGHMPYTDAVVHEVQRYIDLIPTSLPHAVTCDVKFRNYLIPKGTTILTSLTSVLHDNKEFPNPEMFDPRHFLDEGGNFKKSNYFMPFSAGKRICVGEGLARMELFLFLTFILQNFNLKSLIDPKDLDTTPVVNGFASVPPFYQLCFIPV

CN1CCc2nc3ccc(F)cc3c(C(N)=O)c2C1
AC50 (Cytochrome P450 2C19): 39.8 µM (inconclusive) | AC50 (Cytochrome P450 1A2): 25.1 µM (inconclusive) | AC50 (Cytochrome P450 2C9): 17.8 µM (inconclusive)

Nc1nc(CSc2nnnn2-c2ccc(Cl)cc2)nc(N2CCOCC2)n1
AC50 (Cytochrome P450 2C19): 1 µM (inconclusive) | AC50 (Cytochrome P450 2D6): 2.51 µM (inconclusive) | AC50 (Cytochrome P450 1A2): 2.51 µM (inconclusive) | AC50 (Cytochrome P450 2C9): 5.62 µM (inconclusive)

CC(=O)O[C@H]1CC[C@@]2(C)C(=CC[C@@H]3[C@H]4CC[C@@H]([C@H](C)C(=O)O)[C@]4(C)CC[C@H]32)C1
AC50 (Cytochrome P450 1A2): 3.16 µM (inconclusive)

CCCCCCCCC(=O)N/N=C/c1cccc(Br)c1
AC50 (Cytochrome P450 2D6): 7.08 µM (inconclusive)

Cc1cccc(CNc2ccnc(-c3ccccc3C(F)(F)F)n2)c1
AC50 (Cytochrome P450 2D6): 25.1 µM (inconclusive) | AC50 (Cytochrome P450 3A4): 3.16 µM (inconclusive) | AC50 (Cytochrome P450 2C9): 1.26 µM (inconclusive)

O=c1c(-c2cccc(Cl)c2)nc2cncnc2n1Cc1ccccc1
AC50 (Cytochrome P450 2C19): 0.0398 µM (inconclusive) | AC50 (Cytochrome P450 2D6): 39.8 µM (inconclusive)

O=C(CN(CC1CCCO1)C(=O)CNS(=O)(=O)c1ccc(Cl)cc1)NCCc1ccccc1 (stereo unspecified)
AC50 (Cytochrome P450 2D6): 39.8 µM (inconclusive) | AC50 (Cytochrome P450 2C9): 22.4 µM (inconclusive)

CN1CCN(C(c2ccccc2)c2ccccc2)CC1 [CYCLIZINE]
AC50 (Cytochrome P450 2D6): 7.94 µM (inconclusive)

Cc1ccc(C(=O)N/N=C/c2nc3ccccc3n2C)cc1
AC50 (Cytochrome P450 2C19): 15.8 µM (inconclusive) | AC50 (Cytochrome P450 3A4): 3.16 µM (inconclusive) | AC50 (Cytochrome P450 2C9): 12.6 µM (inconclusive)

CC1(c2ccccc2)NC(=O)N(CC(=O)NCCC2=CCCCC2)C1=O (stereo unspecified)
AC50 (Cytochrome P450 2D6): 22.4 µM (inconclusive) | AC50 (Cytochrome P450 3A4): 20 µM (inconclusive)

COc1ccccc1CN1CC[C@@]2(CCCN(C(=O)Oc3ccccc3)C2)C1
AC50 (Cytochrome P450 1A2): 10 µM (inconclusive) | AC50 (Cytochrome P450 3A4): 31.6 µM (inconclusive)

O=C(c1cnccn1)N1CCC2(CCCN(c3ccc(-c4ccccc4)cc3)C2)CC1
AC50 (Cytochrome P450 1A2): 25.1 µM (inconclusive) | AC50 (Cytochrome P450 2C9): 12.6 µM (inconclusive)

COc1cccc(C(=O)N2CCN(C3CCN(Cc4ccccc4)CC3)CC2)c1OC
IC50 [1]: 120 µM (active)

CC(=O)[C@@H]1CC[C@H]2[C@H]3CC[C@H]4C[C@@H](O)CC[C@]4(C)[C@@H]3CC[C@]12C
AC50 (Cytochrome P450 2C19): 20 µM (inconclusive) | AC50 (Cytochrome P450 1A2): 10 µM (inconclusive) | AC50 (Cytochrome P450 3A4): 15.8 µM (inconclusive)

CCc1ccc(OCCOCCN2CCN(C)CC2)cc1
IC50 [1]: 89.4 µM (active)

COc1ccc(C(=O)Nc2ccccc2)cc1NC(=O)c1ccc([N+](=O)[O-])cc1
CC50 [2]: > 50 µM (active) | EC50 [3]: 1.33 µM (active) | EC50 [4]: > 60 µM (not active)

CC(C)CN1CCCC2(CCN(C(=O)c3cc(C(F)(F)F)cc(C(F)(F)F)c3)CC2)C1
AC50 (Cytochrome P450 1A2): 12.6 µM (inconclusive) | AC50 (Cytochrome P450 3A4): 15.8 µM (inconclusive) | AC50 (Cytochrome P450 2C9): 39.8 µM (inconclusive)

COc1ccc(/C=N/c2ccc3[nH]ncc3c2)c(O)c1
IC50 [1]: 35.3 µM (active)

CNC(=O)C1CCN(S(=O)(=O)c2c(C)noc2/C=C/c2ccc(OC)cc2)CC1
EC50 [5]: > 53 µM (inactive)

CCOc1c2ccc(C(=O)NCc3ccc(OC(F)(F)F)cc3)cc2nn1C
AC50 (Cytochrome P450 2C19): 20 µM (inconclusive) | AC50 (Cytochrome P450 2D6): 3.16 µM (inconclusive)

COc1cc(/C=C/C(=O)OCC(=O)Nc2ccc(S(=O)(=O)N3CCCC3)cc2)ccc1O
IC50 [1]: 60 µM (active)

NC(=O)OC[C@H](O)COc1ccc(Cl)cc1
AC50 (Cytochrome P450 1A2): 10 µM (inconclusive)

CCc1nnc(N/N=C/c2c(C)[nH]c3ccccc23)n1N
IC50 [1]: 51.7 µM (active)

O=C(Cn1c(C(=O)NCC2CCCO2)cc2sccc21)c1ccccc1 (stereo unspecified)
IC50 [1]: 102 µM (active)

O=C(COc1cccc2ccccc12)N/N=C/c1ccc(Sc2nc3ccccc3s2)o1
CC50 [2]: 10.8 µM (active)

Cc1nc2cnc(N3CCN(C)CC3)nc2n(Cc2cccs2)c1=O
AC50 (Cytochrome P450 2D6): 15.8 µM (inconclusive) | AC50 (Cytochrome P450 3A4): 25.1 µM (inconclusive)

Cc1nc(N)sc1CCN [AMTHAMINE]
AC50 (Cytochrome P450 1A2): 31.6 µM (inconclusive)

CCN1C(=O)C(CC(=O)Nc2ccc(OC)cc2)N(Cc2cccs2)C1=S (stereo unspecified)
AC50 (Cytochrome P450 2D6): 14.1 µM (inconclusive)

COc1ccc(C(=O)N2CCC3(CCCN(C(=O)Nc4cccc(C#N)c4)C3)CC2)cc1
AC50 (Cytochrome P450 2C19): 39.8 µM (inconclusive) | AC50 (Cytochrome P450 1A2): 15.8 µM (inconclusive) | AC50 (Cytochrome P450 2C9): 39.8 µM (inconclusive)

CCCCN(CCCC)CCCOC(=O)c1ccc(N)cc1 [BUTACAINE]
AC50 (Cytochrome P450 1A2): 10 µM (inconclusive)

Cn1c(=O)c(-c2ccccc2)nc2cnc(N3CCNCC3)nc21
AC50 (Cytochrome P450 2C19): 39.8 µM (inconclusive) | AC50 (Cytochrome P450 2C9): 15.8 µM (inconclusive)

Cc1ccc([N+](=O)[O-])cc1NC(=S)NC(=O)CC(C)(C)C
AC50 (Cytochrome P450 2D6): 12.6 µM (inconclusive) | AC50 (Cytochrome P450 3A4): 22.4 µM (inconclusive)

Cc1ccccc1[C@]1(C)ON(c2ccccc2C(F)(F)F)C1=O
CC50 [2]: 21.8 µM (active)

O=S(=O)(c1ccccc1)N1CCC[C@@]2(CCN(Cc3ccccc3)C2)C1
AC50 (Cytochrome P450 1A2): 20 µM (inconclusive) | AC50 (Cytochrome P450 3A4): 1.26 µM (inconclusive)

CCN(CC)C(=O)CSc1nnc(CNc2ccc(F)cc2)o1
AC50 (Cytochrome P450 2C19): 22.4 µM (inconclusive) | AC50 (Cytochrome P450 3A4): 25.1 µM (inconclusive)

O=C(CN1CCN(S(=O)(=O)c2ccc(Br)cc2)CC1)N/N=C/c1ccc(Br)s1
CC50 [2]: 22.2 µM (active) | EC50 [3]: 2.55 µM (active) | EC50 [4]: > 60 µM (not active)

CCOC(=O)c1c(C)[nH]c(N=Nc2ccccc2)c1C
CC50 [2]: 34.9 µM (active)

COc1ccccc1NC(=O)C1CCN(S(=O)(=O)c2ccc3c(c2)NC(=O)C(C)S3)CC1 (stereo unspecified)
CC50 [2]: 20.2 µM (active)

COc1cccc(C(=O)Nc2nc3c(s2)CN(C)CC3)c1
AC50 (Cytochrome P450 2D6): 25.1 µM (inconclusive)

Cc1c(N(C)C)c(=O)n(-c2ccccc2)n1C [AMINOPYRINE]
AC50 (Cytochrome P450 1A2): 10 µM (inconclusive)

CN1CCN(c2ncc3nc(-c4ccccc4)c(=O)n(Cc4cccs4)c3n2)CC1
AC50 (Cytochrome P450 1A2): 15.8 µM (inconclusive)

O=C(N/N=C/c1ccc(Br)s1)c1c[nH]c2ccccc12
CC50 [2]: 37.3 µM (active)

CCC(C)OC(=O)C1=C(C)NC(=O)CC1c1ccccc1OC (stereo unspecified)
AC50 (Cytochrome P450 1A2): 15.8 µM (inconclusive) | AC50 (Cytochrome P450 3A4): 39.8 µM (inconclusive)

CC(C)C(=O)/N=c1\sc2cccc(F)c2n1C
CC50 [2]: > 50 µM (active)

COC(=O)c1nn(-c2ccccc2)c(Cl)c1/C=N/OCc1ccc(Cl)cc1Cl
CC50 [2]: 23.8 µM (active)

NC[C@@H]1O[C@H](c2ccccc2)Cc2c1ccc(O)c2O
AC50 (Cytochrome P450 2D6): 31.6 µM (inconclusive) | AC50 (Cytochrome P450 1A2): 15.8 µM (inconclusive) | AC50 (Cytochrome P450 3A4): 31.6 µM (inconclusive)

CN(C)c1ncnc2ccc(-c3cccnc3)cc12
AC50 (Cytochrome P450 2D6): 39.8 µM (inconclusive) | AC50 (Cytochrome P450 2C9): 1.26 µM (inconclusive)
